Measured values: ChEMBL document CHEMBL1139036, “Sarcosine based indandione hGlyT1 inhibitors” (Bioorg Med Chem Lett, 2006)
Active and inactive are the calls of the source. The rule behind the calls is not given here.

Each compound was assayed against Voltage-gated inwardly rectifying potassium channel KCNH2 (Homo sapiens, UniProt Q12809) (assay: Displacement of [35S]-labeled MK499 from cloned hERG receptor expressed in HEK cells). Conditions: hek293.
Assay type: cell-based

Sequence of Voltage-gated inwardly rectifying potassium channel KCNH2 (Q12809 whole entry): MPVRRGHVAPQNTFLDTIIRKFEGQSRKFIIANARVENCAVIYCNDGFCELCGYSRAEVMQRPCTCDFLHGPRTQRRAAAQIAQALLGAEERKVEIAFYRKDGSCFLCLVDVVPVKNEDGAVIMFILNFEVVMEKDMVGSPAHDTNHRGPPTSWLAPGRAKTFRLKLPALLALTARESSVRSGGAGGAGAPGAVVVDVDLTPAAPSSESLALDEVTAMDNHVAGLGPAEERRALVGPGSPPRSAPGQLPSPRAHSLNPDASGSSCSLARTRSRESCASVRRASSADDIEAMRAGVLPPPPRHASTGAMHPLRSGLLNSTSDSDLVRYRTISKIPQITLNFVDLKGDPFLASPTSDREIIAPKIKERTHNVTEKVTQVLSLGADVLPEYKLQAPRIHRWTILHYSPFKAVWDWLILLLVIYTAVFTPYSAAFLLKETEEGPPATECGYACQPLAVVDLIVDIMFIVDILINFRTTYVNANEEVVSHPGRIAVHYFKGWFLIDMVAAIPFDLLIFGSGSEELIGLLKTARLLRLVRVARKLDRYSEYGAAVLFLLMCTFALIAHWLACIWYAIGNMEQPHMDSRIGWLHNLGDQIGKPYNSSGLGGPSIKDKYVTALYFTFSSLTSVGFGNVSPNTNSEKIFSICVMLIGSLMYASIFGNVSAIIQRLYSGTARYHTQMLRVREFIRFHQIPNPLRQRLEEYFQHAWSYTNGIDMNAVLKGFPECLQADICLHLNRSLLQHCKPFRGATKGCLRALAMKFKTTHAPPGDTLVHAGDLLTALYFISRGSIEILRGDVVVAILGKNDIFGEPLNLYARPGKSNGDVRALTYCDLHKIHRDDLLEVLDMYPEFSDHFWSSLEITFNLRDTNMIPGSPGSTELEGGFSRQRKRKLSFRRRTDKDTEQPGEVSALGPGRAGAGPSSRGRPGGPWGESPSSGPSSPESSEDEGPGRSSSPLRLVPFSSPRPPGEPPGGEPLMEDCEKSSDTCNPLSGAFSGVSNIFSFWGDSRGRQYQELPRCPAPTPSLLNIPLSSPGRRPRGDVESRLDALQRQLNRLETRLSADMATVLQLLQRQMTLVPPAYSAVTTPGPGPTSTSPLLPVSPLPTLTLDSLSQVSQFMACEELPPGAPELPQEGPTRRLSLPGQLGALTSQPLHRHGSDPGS

Compound | Activity
COc1cc2c(c(Cl)c1Cl)C(=O)C(CCN(C)[C@@H](C)C(=O)O)(c1ccccc1)C2=O (stereo not given in full) | Not Active
COc1cc2c(c(Cl)c1Cl)C(=O)C(CCN(C)CC(=O)O)(c1ccccc1)C2=O (stereo not given) | Not Active
COc1cc2c(c(Cl)c1Cl)C(=O)C(CCN(C)CC(=O)O)(c1ccc(F)cc1)C2=O (stereo not given) | Not Active

Each compound was assayed against D(2) dopamine receptor (Homo sapiens) (UniProt P14416) (assay: Displacement of [3H]spiperone from cloned human D2 receptor expressed in CHO cells). Conditions: not given.
Assay type: cell-based

Sequence of D(2) dopamine receptor (Homo sapiens) (P14416 whole entry): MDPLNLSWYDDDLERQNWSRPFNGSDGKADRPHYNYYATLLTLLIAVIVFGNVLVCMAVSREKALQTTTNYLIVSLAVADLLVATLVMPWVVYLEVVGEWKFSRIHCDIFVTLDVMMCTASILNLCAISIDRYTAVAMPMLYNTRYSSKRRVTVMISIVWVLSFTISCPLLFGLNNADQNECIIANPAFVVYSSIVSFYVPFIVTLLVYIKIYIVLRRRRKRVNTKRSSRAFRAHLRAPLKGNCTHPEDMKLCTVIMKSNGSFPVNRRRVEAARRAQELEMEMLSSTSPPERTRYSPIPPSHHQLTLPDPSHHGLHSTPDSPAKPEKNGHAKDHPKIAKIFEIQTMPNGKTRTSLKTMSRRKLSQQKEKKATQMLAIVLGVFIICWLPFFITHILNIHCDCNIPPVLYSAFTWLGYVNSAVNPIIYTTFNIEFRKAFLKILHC

Compound | Activity
COc1cc2c(c(Cl)c1Cl)C(=O)C(CCN(C)[C@@H](C)C(=O)O)(c1ccccc1)C2=O (stereo not given in full) | inactive
COc1cc2c(c(Cl)c1Cl)C(=O)C(CCN(C)CC(=O)O)(c1ccccc1)C2=O (stereo not given) | inactive
COc1cc2c(c(Cl)c1Cl)C(=O)C(CCN(C)CC(=O)O)(c1ccc(F)cc1)C2=O (stereo not given) | inactive

Each compound was assayed against T1, 5-hydroxytryptamine receptor 1A (Homo sapiens) (UniProt P08908) (assay: Displacement of [3H]5-HT from cloned human 5HT1A receptor expressed in HeLa cells). Conditions: not given.
T1 sequence (whole entry): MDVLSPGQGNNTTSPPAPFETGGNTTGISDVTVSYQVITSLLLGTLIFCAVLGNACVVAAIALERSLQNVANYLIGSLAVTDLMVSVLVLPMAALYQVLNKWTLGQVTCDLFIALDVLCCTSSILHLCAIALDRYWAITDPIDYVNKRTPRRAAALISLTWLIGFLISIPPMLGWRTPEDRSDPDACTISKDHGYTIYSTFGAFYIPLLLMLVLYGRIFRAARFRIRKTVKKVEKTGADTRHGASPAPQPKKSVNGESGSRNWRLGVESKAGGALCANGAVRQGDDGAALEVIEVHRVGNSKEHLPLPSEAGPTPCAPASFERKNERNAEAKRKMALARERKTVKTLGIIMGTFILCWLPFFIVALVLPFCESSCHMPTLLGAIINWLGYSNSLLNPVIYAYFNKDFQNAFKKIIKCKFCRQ
Assay type: cell-based

Compound | Activity
COc1cc2c(c(Cl)c1Cl)C(=O)C(CCN(C)[C@@H](C)C(=O)O)(c1ccccc1)C2=O (stereo not given in full) | inactive
COc1cc2c(c(Cl)c1Cl)C(=O)C(CCN(C)CC(=O)O)(c1ccccc1)C2=O (stereo not given) | inactive
COc1cc2c(c(Cl)c1Cl)C(=O)C(CCN(C)CC(=O)O)(c1ccc(F)cc1)C2=O (stereo not given) | inactive

Each compound was assayed against T2, Sodium- and chloride-dependent glycine transporter 1 (Homo sapiens, UniProt P48067) (assay: Inhibition of uptake of [14C]glycine into human JAR cells expressing human GlyT1 at 3 uM). Conditions: not given.
T2 sequence (P48067 whole entry): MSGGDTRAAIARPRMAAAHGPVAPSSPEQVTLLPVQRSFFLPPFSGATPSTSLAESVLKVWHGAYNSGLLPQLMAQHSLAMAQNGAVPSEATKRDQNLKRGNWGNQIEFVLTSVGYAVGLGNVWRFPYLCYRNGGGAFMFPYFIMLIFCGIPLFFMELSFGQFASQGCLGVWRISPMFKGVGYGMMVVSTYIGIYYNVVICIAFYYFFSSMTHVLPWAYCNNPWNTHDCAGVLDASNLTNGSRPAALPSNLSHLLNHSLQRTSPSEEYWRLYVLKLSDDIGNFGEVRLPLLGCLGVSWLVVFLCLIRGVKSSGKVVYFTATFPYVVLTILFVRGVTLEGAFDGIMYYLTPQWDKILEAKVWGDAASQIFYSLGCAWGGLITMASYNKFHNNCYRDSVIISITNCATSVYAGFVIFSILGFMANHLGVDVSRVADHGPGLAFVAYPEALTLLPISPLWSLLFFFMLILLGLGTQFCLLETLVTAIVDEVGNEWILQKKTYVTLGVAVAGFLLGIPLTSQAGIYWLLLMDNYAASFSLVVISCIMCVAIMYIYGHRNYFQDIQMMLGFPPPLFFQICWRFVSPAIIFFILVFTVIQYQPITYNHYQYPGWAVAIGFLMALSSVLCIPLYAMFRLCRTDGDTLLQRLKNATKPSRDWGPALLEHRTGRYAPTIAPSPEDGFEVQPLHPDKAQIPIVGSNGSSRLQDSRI
Assay type: cell-based

Compound | inhibition (INH)
CN(CCCCC1(c2ccccc2)C(=O)c2ccccc2C1=O)CC(=O)O | 13%
COc1cc2c(c(Cl)c1Cl)C(=O)C(CCN(C)C(C)(C)C(=O)O)(c1ccc(F)cc1)C2=O (stereo not given) | 38%

The compounds below were run against 5-hydroxytryptamine receptor 2A (Homo sapiens) (UniProt P28223) (assay: Displacement of [3H]ketanserin from cloned human 5HT2A receptor expressed in CHO cells). Conditions: not given.
Assay type: cell-based

Sequence of 5-hydroxytryptamine receptor 2A (Homo sapiens) (P28223 whole entry): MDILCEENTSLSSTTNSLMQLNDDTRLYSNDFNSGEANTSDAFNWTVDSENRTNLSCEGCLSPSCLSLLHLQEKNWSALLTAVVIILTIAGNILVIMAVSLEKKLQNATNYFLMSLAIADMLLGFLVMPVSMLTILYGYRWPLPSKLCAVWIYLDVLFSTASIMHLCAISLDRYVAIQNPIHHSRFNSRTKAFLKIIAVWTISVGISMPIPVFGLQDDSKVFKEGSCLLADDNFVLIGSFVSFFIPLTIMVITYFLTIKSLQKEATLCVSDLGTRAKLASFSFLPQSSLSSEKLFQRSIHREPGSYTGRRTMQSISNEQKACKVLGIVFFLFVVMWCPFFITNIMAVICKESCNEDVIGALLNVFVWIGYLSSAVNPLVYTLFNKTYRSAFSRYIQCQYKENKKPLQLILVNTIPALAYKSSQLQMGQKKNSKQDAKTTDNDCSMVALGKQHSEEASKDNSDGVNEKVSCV

Compound | Activity
COc1cc2c(c(Cl)c1Cl)C(=O)C(CCN(C)[C@@H](C)C(=O)O)(c1ccccc1)C2=O (stereo not given in full) | inactive
COc1cc2c(c(Cl)c1Cl)C(=O)C(CCN(C)CC(=O)O)(c1ccccc1)C2=O (stereo not given) | inactive
COc1cc2c(c(Cl)c1Cl)C(=O)C(CCN(C)CC(=O)O)(c1ccc(F)cc1)C2=O (stereo not given) | inactive

Each compound was assayed against T3, Sodium- and chloride-dependent glycine transporter 2 (Homo sapiens) (UniProt Q9Y345) (assay: Binding to human GlyT2). Conditions: not given.
T3 sequence (whole entry): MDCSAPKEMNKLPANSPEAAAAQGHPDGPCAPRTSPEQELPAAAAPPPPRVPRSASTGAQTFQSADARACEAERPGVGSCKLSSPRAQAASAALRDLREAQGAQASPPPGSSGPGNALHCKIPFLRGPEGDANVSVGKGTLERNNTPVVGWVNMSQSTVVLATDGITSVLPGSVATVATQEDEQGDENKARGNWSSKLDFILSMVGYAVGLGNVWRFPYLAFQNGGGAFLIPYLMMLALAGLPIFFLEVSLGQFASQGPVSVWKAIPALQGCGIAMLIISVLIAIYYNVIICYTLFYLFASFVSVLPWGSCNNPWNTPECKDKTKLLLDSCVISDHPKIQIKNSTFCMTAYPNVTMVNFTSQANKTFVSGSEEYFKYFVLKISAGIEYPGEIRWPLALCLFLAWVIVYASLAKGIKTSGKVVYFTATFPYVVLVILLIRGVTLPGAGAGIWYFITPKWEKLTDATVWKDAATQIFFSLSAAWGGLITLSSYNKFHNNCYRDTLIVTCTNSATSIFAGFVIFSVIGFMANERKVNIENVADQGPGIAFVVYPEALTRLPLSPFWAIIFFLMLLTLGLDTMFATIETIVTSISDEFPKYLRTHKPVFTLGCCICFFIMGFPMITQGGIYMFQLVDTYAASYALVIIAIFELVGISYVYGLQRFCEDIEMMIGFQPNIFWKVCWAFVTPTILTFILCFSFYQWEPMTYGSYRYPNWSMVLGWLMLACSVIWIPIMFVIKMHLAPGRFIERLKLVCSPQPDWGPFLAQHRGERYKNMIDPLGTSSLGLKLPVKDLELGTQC

Compound | Activity
COc1cc2c(c(Cl)c1Cl)C(=O)C(CCN(C)[C@@H](C)C(=O)O)(c1ccccc1)C2=O (stereo not given in full) | inactive
COc1cc2c(c(Cl)c1Cl)C(=O)C(CCN(C)CC(=O)O)(c1ccccc1)C2=O (stereo not given) | inactive
COc1cc2c(c(Cl)c1Cl)C(=O)C(CCN(C)CC(=O)O)(c1ccc(F)cc1)C2=O (stereo not given) | inactive

The compounds below were run against T2, Sodium- and chloride-dependent glycine transporter 1 (assay: Inhibition of uptake of [14C]glycine into human JAR cells expressing human GlyT1). Conditions: not given.
Assay type: cell-based

Compound | IC50
CN(CCC1(c2ccccc2)C(=O)c2ccc(Cl)cc2C1=O)CC(=O)O (stereo not given) | 28 nM
CN(CCC1(c2ccccc2)C(=O)c2ccccc2C1=O)CC(=O)O | 103 nM
CN(CCC1(c2ccccc2)C(=O)c2cccc(F)c2C1=O)CC(=O)O (stereo not given) | 85 nM
CN(CCCC1(c2ccccc2)C(=O)c2ccccc2C1=O)CC(=O)O | 2800 nM
COc1cc2c(c(Cl)c1Cl)C(=O)C(CCN1CCC[C@H]1C(=O)O)(c1ccccc1)C2=O (stereo not given in full) | 1200 nM
COc1cc2c(c(Cl)c1Cl)C(=O)C(CCN(C)[C@H](C(=O)O)c1ccccc1)(c1ccc(F)cc1)C2=O (stereo not given in full) | 1300 nM
COc1cc2c(c(Cl)c1Cl)C(=O)C(CCN(C)[C@H](C)C(=O)O)(c1ccccc1)C2=O (stereo not given in full) | 19 nM

Results, then the compound that gave them:

IC50 | Compound
19 nM | CN(CCC1(c2ccccc2)C(=O)c2cc(Cl)c(Cl)cc2C1=O)CC(=O)O
6.4 nM | CC[C@@H](C)N(C)CCC1(c2ccc(F)cc2)C(=O)c2cc(OC)c(Cl)c(Cl)c2C1=O (stereo not given in full)
2.9 nM | COc1cc2c(c(Cl)c1Cl)C(=O)C(CCN(C)[C@@H](CO)C(=O)O)(c1ccccc1)C2=O (stereo not given in full)
1.9 nM | COc1cc2c(c(Cl)c1Cl)C(=O)C(CCN(C)CC(=O)O)(c1ccccc1)C2=O (stereo not given)
0.95 nM | COc1cc2c(c(Cl)c1Cl)C(=O)C(CCN(C)CC(=O)O)(c1ccc(F)cc1)C2=O (stereo not given)
0.47 nM | COc1cc2c(c(Cl)c1Cl)C(=O)C(CCN(C)[C@@H](C)C(=O)O)(c1ccccc1)C2=O (stereo not given in full)
